Data from US20030138394A1, “Cosmetic and/or pharmaceutical preparations that contain an extract of the plant argania spinosa” (priority 2000, published 2003).

Test system: human adipocytes
Assay: Lipolysis activity on human adipocytes (released glycerol)
Format: cell-based
Conditions: 30 mM; 90 minutes at 37° C.; reference medium = 0
Description: Method: The adipocytes were isolated from human subcutaneous tissue, as corresponds to the general technique in accordance with Rodbell. The extract as in
Example 1 or the comparison substances are dissolved in the reference medium and then brought into contact with the isolated adipocytes for 90 minutes at 37° C. In each case one adipocyte preparations [sic] was analyzed. The percentage increase in released glycerol in the supernatant of the medium was determined by means of spectrophotometry in accordance with the method by Carpéné et al. The reference administered was the medium without substance to be analyzed and was set equal to 0.

Cn1c(=O)c2c(ncn2C)n(C)c1=O [Caffeine]
% increase in released glycerol: 181%
